Measured values as given in ChEMBL document CHEMBL1125067, “Synthesis and structural requirements of N-substituted norapomorphines for affinity and activity at dopamine D-1, D-2, and agonist receptor sites in rat brain” (J Med Chem, 1990).
pKi: −log10 of the molar value.

Legend:
Rattus norvegicus = assay: Stereotyped behavior was tested in rats at (ip) administration of 3 mg/kg (N=6).scores were compared as the percent of that obtained with apomorphine; assay type: functional
D(1A) dopamine receptor = D(1A) dopamine receptor (Rattus norvegicus, UniProt P18901)
Sequence of D(1A) dopamine receptor (P18901 whole entry): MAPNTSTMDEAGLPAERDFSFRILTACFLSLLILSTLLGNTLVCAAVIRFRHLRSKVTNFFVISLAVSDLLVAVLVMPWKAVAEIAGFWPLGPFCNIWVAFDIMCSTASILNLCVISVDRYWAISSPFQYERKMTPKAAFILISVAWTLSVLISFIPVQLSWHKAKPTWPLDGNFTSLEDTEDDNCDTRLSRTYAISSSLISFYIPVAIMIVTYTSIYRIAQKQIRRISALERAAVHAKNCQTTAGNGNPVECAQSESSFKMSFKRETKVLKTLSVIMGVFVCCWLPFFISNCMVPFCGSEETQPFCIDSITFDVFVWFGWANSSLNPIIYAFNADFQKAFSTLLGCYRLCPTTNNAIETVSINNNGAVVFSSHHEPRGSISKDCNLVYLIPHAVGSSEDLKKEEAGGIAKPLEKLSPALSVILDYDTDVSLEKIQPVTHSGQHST
Description: Dopamine receptor D1 affinity was tested in vitro against corpus striatum from rat brain membranes

D(2) dopamine receptor = D(2) dopamine receptor (Rattus norvegicus, UniProt P61169)
Sequence of D(2) dopamine receptor (P61169 whole entry): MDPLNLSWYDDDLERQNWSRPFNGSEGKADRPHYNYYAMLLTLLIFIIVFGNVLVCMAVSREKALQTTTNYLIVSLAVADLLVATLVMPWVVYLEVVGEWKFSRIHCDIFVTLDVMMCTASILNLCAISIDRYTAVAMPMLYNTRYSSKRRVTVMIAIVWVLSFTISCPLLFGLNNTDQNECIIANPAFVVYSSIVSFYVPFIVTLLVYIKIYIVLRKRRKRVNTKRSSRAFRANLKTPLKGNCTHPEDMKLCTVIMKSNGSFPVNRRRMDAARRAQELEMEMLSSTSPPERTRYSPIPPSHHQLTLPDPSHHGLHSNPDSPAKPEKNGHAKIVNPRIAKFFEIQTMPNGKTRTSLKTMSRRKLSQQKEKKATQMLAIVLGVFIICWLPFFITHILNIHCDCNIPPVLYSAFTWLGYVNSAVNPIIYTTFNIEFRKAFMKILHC
Description: Dopamine receptor D2 affinity was tested in vitro against corpus striatum from rat brain membranes

SMILES | Stereotypy score (Rattus norvegicus) | pKi (D(1A) dopamine receptor) | pKi (D(2) dopamine receptor)
CCCN1CCc2cccc3c2[C@H]1Cc1ccc(O)c(O)c1-3.Cl | 99 | – | –
CC(C)CN1CCc2cccc3c2[C@H]1Cc1ccc(O)c(O)c1-3.Cl | 3 | < 5.00 | 6.31
Cl.Oc1ccc2c(c1O)-c1cccc3c1[C@@H](C2)NCC3 | 26 | 6.41 | –
Cl.Oc1ccc2c(c1O)-c1cccc3c1[C@@H](C2)N(CC1CC1)CC3 | 106 | 6.14 | 9.37
Br.C=CCN1CCc2cccc3c2[C@H]1Cc1ccc(O)c(O)c1-3 | 86 | 6.21 | –
CCN1CCc2cccc3c2[C@H]1Cc1ccc(O)c(O)c1-3.Cl | 97 | 6.91 | –
Cl.OCCN1CCc2cccc3c2[C@H]1Cc1ccc(O)c(O)c1-3 | 0 | < 5.00 | –
Cl.Oc1ccc2c(c1O)-c1cccc3c1[C@@H](C2)N(CC(F)(F)F)CC3 | 2 | < 4.30 | –
CC(C)N1CCc2cccc3c2[C@H]1Cc1ccc(O)c(O)c1-3.Cl | 0 | < 5.00 | –
Oc1ccc2c(c1O)-c1cccc3c1[C@@H](C2)N(CC(F)(F)C(F)(F)F)CC3 | – | < 4.30 | –
CN1CCc2cccc3c2[C@H]1Cc1ccc(O)c(O)c1-3.CN1CCc2cccc3c2[C@H]1Cc1ccc(O)c(O)c1-3.Cl.Cl.O [APOMORPHINE HYDROCHLORIDE] | 100 | – | –
